Results from PMC9538944, “In vitro biotransformation assays using fish liver cells: Comparing rainbow trout and carp hepatocytes” (Frontiers in Toxicology, 2022).
Marks after values point to notes of the source that are not given here.

Key:
[1] = system: common carp hepatocytes; assay: In vitro hepatocyte clearance assay (substrate depletion), carp; format: in vitro ADME, Cyprinus carpio; details: 20 °C, 2 µM MXC / 0.5 µM BaP, mean over in vitro runs
Description: Isolation of hepatocytes from liver of rainbow trout was performed by a two-step collagenase perfusion procedure which is well established for rainbow trout ([Nabb et al., 2006]; [Fay et al., 2015]). […] In previous studies with common carp, an in vitro digestion method was used to isolate hepatocytes ([Cowan-Ellsberry et al., 2008]; [Dyer et al., 2008]). Here, we adopted the method of [Segner et al. (1993)] who used a two-step collagenase perfusion of carp liver via the Arteria coeliaca for cell isolation. With the perfusion method, the percentage of pancreatic cells in the final cell suspension is typically <5% ([Vogt and Segner, 1997]). Cryopreservation and thawing procedures applied for hepatocytes of both species were based on the standard protocols for rainbow trout ([Fay et al., 2014a]; [Fay et al., 2014b]). The viability of the cells was determined by means of the trypan blue exclusion assay and counting of stained and non-stained cells in a hemocytometer. The carp and trout primary hepatocyte suspensions used in the present study were aliquots of the in vitro preparations used in a previous study investigating the in vitro metabolite patterns of MXC ([Bischof et al., 2016]). A detailed description of the methods and materials used for the preparation of hepatocyte suspensions including the procedures for cell isolation, cryopreservation, and thawing, as well as cell counting, diluting to the target cell concentration, and heat-inactivating can therefore be taken from [Bischof et al. (2016)] and from the cited publications.
The in vitro hepatocyte clearance experiments were performed in a substrate depletion approach according to the methods previously published by [Fay et al. (2014b)]. These methods are in accordance with the procedures provided in the OECD TG 319A on the performance of in vitro hepatocyte clearance assays. In the present study, several in vitro runs with MXC and BaP using suspensions of either freshly isolated or cryopreserved hepatocytes from common carp and rainbow trout were carried out. For the different in vitro runs non-pooled hepatocytes were used, i.e. hepatocytes from different individual fish. For each run, triplicates of live cells (3 × 1 ml at nominal 2 × 10^6 cells/mL) and heat-inactivated cells as controls were dosed with the test chemical dissolved in acetonitrile (ACN) at the targeted concentration (2 µM for MXC and 0.5 µM for BaP) and incubated for 4 h at 15 °C (trout) or 20 °C (carp). MXC and BaP reactions were run side by side in the same in vitro run using the same hepatocyte suspensions. […]
Measured values of parent chemical concentration were log10-transformed and plotted against time. […]

[2] = design: method as in Fay et al., 2014b; details: ref Fay et al., 2014b; cited from earlier work
[3] = cryopreserved carp hepatocytes, 4 h time point excluded
[4] = freshly isolated carp hepatocytes, 4 h, nominal 2 × 10^6 cells/mL

SMILES | Mean in vitro intrinsic clearance (CLin vitro, int) [1, 3] [mL/h/10^6 cells] | Mean in vitro intrinsic clearance (CLin vitro, int) [1, 4] | log KOW [2]
c1ccc2c(c1)cc1ccc3cccc4ccc2c1c34 [BaP, benzo[a]pyrene] | 0.287 | 0.198^* mL/h/10^6 cells | 5.99
COc1ccc(C(c2ccc(OC)cc2)C(Cl)(Cl)Cl)cc1 [MXC, methoxychlor] | 0.204 | 0.287^* mL/h/10^6 cells | 5.08
